Assay results taken from patent US8410173B2, “Inhibition of JAK2 as a treatment of pulmonary arterial hypertension” (YM Biosciences Australia Pty Ltd, priority 2006, dated 2013).
Entries after “also recorded” stand apart in the source; their conditions may differ. Marks after values point to notes of the source that are not given here.

Legend:
[1] = tested on: rat monocrotaline model of PAH; settings: cited from earlier work; for efficacy in the rat monocrotaline model of PAH: sildenafil oral, alone or in combination with beraprost
[2] = tested on: rat monocrotaline model of pulmonary arterial hypertension; test: rat monocrotaline model of pulmonary arterial hypertension, RV pressures; format: in vivo; settings: for RVEDP Mean / RVS Mean Difference (I − J) vs group 1 (saline control) / RVS Mean Difference (I − J) vs group 2 (monocrotaline, vehicle): day 21
Method: To test the efficacy of JAK2 inhibition as a treatment for PAH, the rat monocrotaline model of pulmonary arterial hypertension was used. Animals with pulmonary arterial hypertension induced by monocrotaline were treated for three weeks with the selective JAK2 inhibitor, AG490, or vehicle. AG490 is a tyrphostin based tyrosine kinase inhibitor selective for JAK2.

[3] = tested on: plexiform lesions in lungs of monocrotaline treated rats; test: histological studies (H&E) of lungs, rat monocrotaline model; format: in vivo; settings: AG490 1 mg/kg tid, H&E stains of formalin fixed lungs
Method: A. Normal lung; B. Lung from monocrotaline treated animal. C. Lung from rat given monocrotaline and AG490 1 mg/kg tid. The arrows point to pulmonary arterioles.
Histological studies of the lungs from group 2 and group 5 were performed to determine the effect of selective JAK2 inhibition on the pulmonary vascular lesions associated with PAH.

[4] = group 3, AG490 1 mg/kg/day SID IP
[5] = group 4, AG490 3 mg/kg/day SID IP
[6] = group 5, AG490 1 mg/kg/dose TID IP

SMILES: COc1ccccc1Oc1c(NS(=O)(=O)c2ccc(C(C)(C)C)cc2)nc(-c2ncccn2)nc1OCCO [bosentan]
- pulmonary artery thickening ([1]; rat monocrotaline model): decrease pulmonary artery thickening
- pulmonary hypertension ([1]; rat monocrotaline model): reduce pulmonary hypertension

SMILES: O=S(=O)(c1cccc2cnccc12)N1CCCNCC1 [fasudil]
- progression of PAH ([1]; rat monocrotaline model): prevented the progression of PAH
- pulmonary arterial hypertension, pulmonary vascular lesions, endothelial cell dysfunction, and RV hypertrophy ([1]; rat monocrotaline model): decreased
- survival ([1]; rat monocrotaline model): improved survival

SMILES: CCCc1nn(C)c2c(=O)[nH]c(-c3cc(S(=O)(=O)N4CCN(C)CC4)ccc3OCC)nc12 [sildenafil]
- efficacy in the rat monocrotaline model of PAH [1]: showed efficacy

SMILES: CC#CCC(C)[C@H](O)/C=C/[C@@H]1[C@H]2C/C(=C/CCCC(=O)O)C[C@H]2C[C@H]1O (stereo partly shown) [iloprost]
- efficacy in the rat monocrotaline model of PAH [1]: showed efficacy

SMILES: O=C(C(=O)N1CCn2nc(-c3ccc(F)cc3)c(-c3ccncc3)c2N1)c1ccccc1.O=S(=O)(O)O [FR167653]
- progression of PAH ([1]; rat monocrotaline model): decrease the progression of PAH

SMILES: Cc1ccc(NC(=O)c2ccc(CN3CCN(C)CC3)cc2)cc1Nc1nccc(-c2cccnc2)n1 [imantinib]
- RV systolic pressure ([1]; rat monocrotaline model): decreased
- survival ([1]; rat monocrotaline model): improved survival

SMILES: N#C/C(=C\c1ccc(O)c(O)c1)C(=O)NCc1ccccc1 [AG490]
- reduction of RV systolic pressure vs vehicle treated group ([2]; AG490 1 mg/kg tid, day 21, p=0.023): 24%
- RV systolic pressure ([2]; AG490 1 mg/kg tid, monocrotaline treated rats, day 21 (group 5), vehicle 38.44±3.1): 29.23±4.5 mm Hg
- RV systolic pressure improvement, in words ([2]; group 3, AG490 1 mg/kg/day): No improvement
- RVEDP Mean Difference (I − J) vs group 1 (saline control) [2, 4]: 5.5436
- RVEDP Mean Difference (I − J) vs group 2 (monocrotaline, vehicle) [2, 4]: −.0585
- RVEDP Mean [2, 4]: 4.042 mm Hg
- RVS Mean Difference (I − J) vs group 1 (saline control) [2, 4]: 11.468*
- RVS Mean Difference (I − J) vs group 2 (monocrotaline, vehicle) [2, 4]: −2.487
- RVEDP Mean Difference (I − J) vs group 1 (saline control) [2, 5]: .6433
- RVEDP Mean Difference (I − J) vs group 2 (monocrotaline, vehicle) [2, 5]: −4.9588
- RVEDP Mean [2, 5]: −.858 mm Hg
- RVS Mean Difference (I − J) vs group 1 (saline control) [2, 5]: 6.730
- RVS Mean Difference (I − J) vs group 2 (monocrotaline, vehicle) [2, 5]: −7.225
- RV systolic pressure compared to group 2 (vehicle only), in words ([2]; group 5, AG490 1 mg/kg tid, p=0.023, 1 mg/kg): significantly reduced; also recorded: significant reduction; also recorded: significantly lower
- RV End diastolic pressure compared to group 2 (vehicle), in words ([2]; group 5, AG490 1 mg/kg tid, p=0.05): significantly lower
- RVEDP Mean Difference (I − J) vs group 1 (saline control) [2, 6]: −.0193
- RVEDP Mean Difference (I − J) vs group 2 (monocrotaline, vehicle) [2, 6]: −5.6214*
- RVEDP Mean [2, 6]: −1.521 mm Hg
- RVS Mean Difference (I − J) vs group 1 (saline control) [2, 6]: 4.741
- RVS Mean Difference (I − J) vs group 2 (monocrotaline, vehicle) [2, 6]: −9.214*
- plexiform lesions associated with pulmonary arterial hypertension [3]: prevented the formation of plexiform lesions; also recorded: decreased
